Assay results reported in the supplement of paper PMC4862054.

What was measured:
Details in all cases: incubation time: 72 h
[1] = tested on: BT-474; assay: normalised response (% of control), CellTox Green; higher = less cell death (100 = DMSO, 0 = benzethonium chloride kill control)
In short: (§1)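 The table gives the normalised signal for a single concentration in each entry. Breast cancer cell lines were seeded (20 µl suspension) into 384-well plates holding compound at 5 concentrations in 10-fold steps over a compound-specific 10,000-fold range and incubated 72 h, then read for CellTox Green fluorescence (485/520 nm) and CellTiter-Glo luminescence. Normalisation on each plate used 0.1 % DMSO (100) and a positive kill control (0).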

[2] = tested on: BT-549; assay: as above
In short: as §1

[3] = tested on: CAL-120; assay: as above
In short: as §1

[4] = tested on: CAL-148; assay: as above
In short: as §1

[5] = tested on: CAL-51; assay: as above
In short: as §1

[6] = tested on: CAL-85-1; assay: as above
In short: as §1

[7] = tested on: DU-4475; assay: as above
In short: as §1

[8] = tested on: HCC1143; assay: as above
In short: as §1

[9] = tested on: HCC1599; assay: as above
In short: as §1

[10] = tested on: HCC1937; assay: as above
In short: as §1

[11] = tested on: Hs578T; assay: as above
In short: as §1

[12] = tested on: MCF-10A; assay: as above
In short: as §1

[13] = tested on: MDA-MB-231; assay: as above
In short: as §1

[14] = tested on: MDA-MB-436; assay: as above
In short: as §1

[15] = tested on: MDA-MB-453; assay: as above
In short: as §1

[16] = tested on: MDA-MB-468; assay: as above
In short: as §1

[17] = tested on: MFM-223; assay: as above
In short: as §1

[18] = tested on: BT-474; assay: normalised response (% of control), CellTiter-Glo; higher = more viable cells (100 = DMSO, 0 = benzethonium chloride kill control)
Procedure: (§2)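 DSRT, 72 h incubation, CellTox Green / CellTiter-Glo readout. Signal is normalised to DMSO and benzethonium chloride controls. Value is the normalised response at the highest dose.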

[19] = tested on: BT-549; assay: as above
Procedure: as §2

[20] = tested on: CAL-120; assay: as above
Procedure: as §2

[21] = tested on: CAL-148; assay: as above
Procedure: as §2

[22] = tested on: CAL-51; assay: as above
Procedure: as §2

[23] = tested on: CAL-85-1; assay: as above
Procedure: as §2

[24] = tested on: DU-4475; assay: as above
Procedure: as §2

[25] = tested on: HCC1143; assay: as above
Procedure: as §2

[26] = tested on: HCC1599; assay: as above
Procedure: as §2

[27] = tested on: HCC1937; assay: as above
Procedure: as §2

[28] = tested on: HDQ-P1; assay: as above
Procedure: as §2

[29] = tested on: Hs578T; assay: as above
Procedure: as §2

[30] = tested on: MCF-10A; assay: as above
Procedure: as §2

[31] = tested on: MDA-MB-231; assay: as above
Procedure: as §2

[32] = tested on: MDA-MB-436; assay: as above
Procedure: as §2

[33] = tested on: MDA-MB-453; assay: as above
Procedure: as §2

[34] = tested on: MDA-MB-468; assay: as above
Procedure: as §2

[35] = tested on: MFM-223; assay: as above
Procedure: as §2

[36] = tested on: SK-BR-3; assay: as above
Procedure: as §2

[37] = tested on: HDQ-P1; assay: normalised response (% of control), CellTox Green; higher = less cell death (100 = DMSO, 0 = benzethonium chloride kill control)
In short: as §1

Row | SMILES | normalised response [1] [%] | normalised response [2] [%] | normalised response [3] [%] | normalised response [4] [%] | normalised response [5] [%] | normalised response [6] [%] | normalised response [7] [%] | normalised response [8] [%] | normalised response [9] [%] | normalised response [10] [%] | normalised response [11] [%] | normalised response [12] [%] | normalised response [13] [%] | normalised response [14] [%] | normalised response [15] [%] | normalised response [16] [%] | normalised response [17] [%] | normalised response [18] [%] | normalised response [19] [%] | normalised response [20] [%] | normalised response [21] [%] | normalised response [22] [%] | normalised response [23] [%] | normalised response [24] [%] | normalised response [25] [%] | normalised response [26] [%] | normalised response [27] [%] | normalised response [28] [%] | normalised response [29] [%] | normalised response [30] [%] | normalised response [31] [%] | normalised response [32] [%] | normalised response [33] [%] | normalised response [34] [%] | normalised response [35] [%] | normalised response [36] [%] | normalised response [37] [%]
1 | CC(=O)O[C@]1(C(C)=O)CC[C@H]2[C@@H]3C=C(C)C4=CC(=O)CC[C@]4(C)[C@H]3CC[C@@]21C [Megestrol acetate] (10000 nM) | 99.2 | 105 | 96.6 | 99.9 | 111 | 109 | 97.6 | 112 | 95.9 | 84 | 58.5 | 102 | 123 | 88.3 | 99.8 | 176 | 103 | 111 | 107 | 90 | 88.7 | 123 | 97.7 | 93.9 | 102 | 99.5 | 98 | 102 | 94.5 | 135 | 124 | 96 | 91.3 | 95.9 | 91.7 | 89 | –
2 | CCN1CCN(c2ccc(Nc3cc(N(C)C(=O)Nc4c(Cl)c(OC)cc(OC)c4Cl)ncn3)cc2)CC1 [NVP-BGJ398] (1000 nM) | 102 | 84.6 | 89.3 | 98.1 | 105 | 119 | 97.7 | 105 | 100 | 52.5 | 115 | 73.2 | – | 102 | 81.6 | 71.5 | 94.1 | 91.3 | 75.9 | 71.1 | 96.5 | 128 | 101 | 100 | 93.6 | 98.7 | 95.7 | 99.8 | 86.2 | 101 | 96.2 | 92.7 | 105 | 97.2 | 50.3 | 97.7 | 101
3 | O=C(c1ccc(C(=O)N2CCC(N3CCCC3)CC2)c(Nc2ccccc2)c1)N1CCC(N2CCCC2)CC1 [UNC1215] (30000 nM) | 102 | 86.1 | 98.6 | 101 | 106 | 116 | 98.2 | – | 94.3 | 98.5 | 84.2 | 82.8 | 88.8 | 93.4 | 102 | 135 | 105 | 101 | 98 | 107 | 93.8 | 99.6 | 92.2 | 94.8 | 96.5 | 96 | 94.2 | 97.7 | 99.6 | 95.4 | 93.9 | 93.2 | 99.8 | 95 | 95.1 | 94 | 50.2
